pEC50, pIC50: −log10 of the molar value.
Experiments:
Format in all cases: cell-based
[1] = molecular target: T1, LPA/S1P GPCR of interest (Homo sapiens, UniProt Q92633); assay: Beta-Arrestin based assay (PathHunter)
T1 construct: host or cells: CHO
In short: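 EA Parental CHO cells (DiscoverX) were transfected with FuGENE (Roche) using CMV promoter-driven DNA constructs encoding the LPA/S1P GPCR of interest fused to a ProLink tag. Beta-arrestin recruitment in agonist mode was assessed 24-48 hrs later with PathHunter kits. Tests ran in quadruplicate in white 384 well plates, and end point luminescence was fit to a 4 parameter logistic function.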

[2] = molecular target: T2, LPA1 (Homo sapiens, UniProt Q92633); assay: LPA1 Migration Assay (Oris); parameters: host or cells: primary fibroblasts (lung, dermal), HFL-1, 3T3 and CHO cells expressing LPA1R; conditions: read-out: Cell Migration EC50
In short: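 Antagonist inhibition was derived by 4-parameter logistic fitting of migrated-cell counts against compound concentration. Dye-loaded, 12-24 h serum-starved fibroblasts, HFL-1, 3T3 or CHO cells expressing LPA1R moved into an Oris detection zone in response to LPA or serum, then were fixed and counted on a high-content reader.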

[3] = molecular target: T2, LPA1; assay: Ca Flux LPA1 assay; parameters: the full-length cDNA for human LPA1 is obtained by PCR of the reverse transcription reaction; expressed in transfected cells

T2 sequence (Q92633 whole entry): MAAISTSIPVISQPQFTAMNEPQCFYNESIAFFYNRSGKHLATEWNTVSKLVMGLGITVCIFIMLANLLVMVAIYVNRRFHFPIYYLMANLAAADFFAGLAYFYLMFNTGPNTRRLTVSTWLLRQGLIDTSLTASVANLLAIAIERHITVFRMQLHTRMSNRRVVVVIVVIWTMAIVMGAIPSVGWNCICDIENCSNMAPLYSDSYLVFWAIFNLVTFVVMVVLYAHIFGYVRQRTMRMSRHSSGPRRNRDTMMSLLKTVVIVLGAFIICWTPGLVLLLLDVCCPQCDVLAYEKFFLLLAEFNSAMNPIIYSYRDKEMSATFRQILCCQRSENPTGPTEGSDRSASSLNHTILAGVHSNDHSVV
T1 sequence (Q92633 whole entry): as above

Structure (SMILES) | pEC50 [1] | pEC50 [2] | pIC50 [3]
C[C@@H](OC(=O)Nc1c(-c2cc3sc(-c4ccc(C5(C(=O)O)CC5)cc4)cc3s2)cnn1C)c1ccccc1 [IT119] | > 7.30 | 6.30 to 7.30 | < 6.30
Cc1noc(-c2cc(F)c(-c3cc(F)c(Oc4ncccc4C(=O)O)c(F)c3)cc2F)c1NC(=O)O[C@H](C)c1ccccc1 [IT474] | > 7.30 | > 7.30 | > 7.30
Cc1onc(-c2cc(F)c(-c3cc4sc(C5(C(=O)O)CC5)cc4s3)cc2F)c1NC(=O)O[C@H](C)c1ccccc1 [IT255] | > 7.30 | 6.30 to 7.30 | 6.30 to 7.30
C[C@@H](OC(=O)Nc1c(-c2ccc(-c3ccc(C4(C(=O)O)CC4)cc3)cc2)oc2ccccc12)c1ccccc1 [IT496] | > 7.30 | > 7.30 | < 6.30
C[C@@H](OC(=O)Nc1c(-c2cc(F)c(-c3cc4sc(C5(C(=O)O)CC5)cc4s3)cc2F)cnn1C)c1ccccc1 [IT121] | > 7.30 | > 7.30 | < 6.30
C[C@@H](OC(=O)Nc1c(-c2ccc(-c3ccc(Oc4ccccc4C(=O)O)c(F)c3)cc2)nnn1C)c1ccccc1 [IT447] | > 7.30 | > 7.30 | > 7.30
Cc1noc(-c2ccc(-c3ccc(Oc4cccnc4C(=O)O)c(F)c3)cc2)c1NC(=O)O[C@H](C)c1ccccc1 [IT424] | > 7.30 | > 7.30 | > 7.30
Cc1noc(-c2ccc(-c3cc(F)c(OC4(C(=O)O)CC4)c(F)c3)cc2)c1NC(=O)O[C@H](C)c1ccccc1 [IT304] | > 7.30 | 6.30 to 7.30 | > 7.30
Cc1noc(-c2ccc(-c3ccc(OC4(C(=O)O)CCC4)cc3)cc2)c1NC(=O)O[C@H](C)c1ccccc1 [IT196] | > 7.30 | 6.30 to 7.30 | > 7.30
C[C@@H](OC(=O)Nc1sncc1C#Cc1cc2sc(C3(C(=O)O)CC3)cc2s1)c1ccccc1 [IT108] | < 6.30 | < 6.30 | < 6.30
Cc1noc(-c2ccc(-c3ccc(Oc4ccccc4C(=O)O)nc3)cc2)c1NC(=O)O[C@H](C)c1ccccc1 [IT345] | > 7.30 | 6.30 to 7.30 | > 7.30
C[C@@H](OC(=O)Nc1c(-c2ccc(-c3ccc(C4(C(=O)OC5OC(C(=O)O)C(O)C(O)C5O)CC4)cc3)cc2)cnn1C)c1ccccc1 (stereo partly drawn) [IT105] | 6.30 to 7.30 | 6.30 to 7.30 | 6.30 to 7.30
Cc1noc(-c2cc(F)c(-c3ccc(Oc4ccccc4C(=O)O)cc3)cc2F)c1NC(=O)O[C@H](C)c1ccccc1 [IT315] | > 7.30 | > 7.30 | > 7.30
Cc1noc(-c2ccc(-c3ccc(OC(C)(C)C(=O)O)cc3)cc2)c1NC(=O)O[C@H](C)c1ccccc1 [IT226] | > 7.30 | > 7.30 | > 7.30
C[C@@H](OC(=O)Nc1c(-c2ccc(-c3cc(F)c(Oc4ccccc4C(=O)O)c(F)c3)cc2)cnn1C)c1ccccc1 [IT425] | > 7.30 | > 7.30 | > 7.30
Cc1noc(-c2ccc(-c3ccc(Oc4c(F)cccc4C(=O)O)c(F)c3)cc2)c1NC(=O)O[C@H](C)c1ccccc1 [IT374] | > 7.30 | 6.30 to 7.30 | 6.30 to 7.30
Cc1noc(-c2ccc(-c3cc(F)c(C4(C(=O)O)CC4)c(F)c3)cc2)c1NC(=O)O[C@H](C)c1ccccc1 [IT234] | > 7.30 | > 7.30 | > 7.30
Cc1noc(-c2ccc(-c3ccc(Oc4c(C(=O)O)nn(C)c4C)cc3)cc2)c1NC(=O)O[C@H](C)c1ccccc1 [IT484] | > 7.30 | 6.30 to 7.30 | > 7.30
Cc1noc(-c2ccc(-c3cc(F)c(Oc4nccnc4C(=O)O)c(F)c3)cc2)c1NC(=O)O[C@H](C)c1ccccc1 [IT305] | > 7.30 | > 7.30 | > 7.30

Structure (SMILES) | pEC50 [1] | pEC50 [2] | pIC50 [3]
COC(=O)C1(c2cc3sc(C#Cc4cnn(C)c4NC(=O)O[C@H](C)c4ccccc4)cc3s2)CC1 [IT479] | > 7.30 | < 6.30 | 6.30 to 7.30
C[C@@H](OC(=O)Nc1c(-c2ccc(-c3ccc(Oc4ccccc4C(=O)O)cc3)cc2)cnn1C)c1ccccc1 [IT198] | > 7.30 | 6.30 to 7.30 | > 7.30
CCC(C)OC(=O)Nc1c(C)noc1-c1ccc(-c2ccc(Oc3ccccc3C(=O)O)cc2)cc1 (single isomer, unassigned) [IT494] | > 7.30 | 6.30 to 7.30 | > 7.30
CCn1ncc(-c2ccc(-c3cc(F)c(Oc4ncccc4C(=O)O)c(F)c3)cc2)c1NC(=O)O[C@H](C)c1ccccc1 [IT489] | > 7.30 | > 7.30 | 6.30 to 7.30
Cc1noc(-c2ccc(-c3ccc(Oc4ccncc4C(=O)O)cc3)cc2)c1NC(=O)O[C@H](C)c1ccccc1 [IT227] | > 7.30 | > 7.30 | > 7.30
Cc1noc(-c2cc3sc(C#CC4(C(=O)O)CC4)cc3s2)c1NC(=O)O[C@H](C)c1ccccc1 [IT117] | > 7.30 | 6.30 to 7.30 | > 7.30
C[C@@H](OC(=O)Nc1c(C#Cc2ccc(Oc3ccccc3C(=O)O)cc2)cnn1C)c1ccccc1 [IT301] | > 7.30 | 6.30 to 7.30 | > 7.30
Cc1noc(-c2ccc(-c3ccc(Oc4ccccc4C(=O)O)cc3)cc2)c1NC(=O)O[C@H](C)c1ccccc1 [IT155] | > 7.30 | > 7.30 | 6.30 to 7.30
Cc1noc(-c2ccc(-c3ccc(Oc4c(C)nn(C)c4C(=O)O)cc3)cc2)c1NC(=O)O[C@H](C)c1ccccc1 [IT483] | > 7.30 | 6.30 to 7.30 | 6.30 to 7.30
C[C@@H](OC(=O)Nc1c(-c2ccc(-c3cc(F)c(Oc4cccnc4C(=O)O)c(F)c3)cc2)nnn1C)c1ccccc1 [IT452] | > 7.30 | > 7.30 | > 7.30
Cc1cc(C2(C(=O)O)CC2)c(F)cc1-c1cc2sc(-c3nnn(C)c3NC(=O)O[C@H](C)c3ccccc3)cc2s1 [IT341] | > 7.30 | 6.30 to 7.30 | 6.30 to 7.30
C[C@@H](OC(=O)Nc1c(-c2ccc(-c3ccc(C4(C(=O)O)CC4)s3)cc2)nnn1C)c1ccccc1 [IT236] | > 7.30 | 6.30 to 7.30 | > 7.30
C[C@@H](OC(=O)Nc1c(-c2ccc(-c3ccc(Oc4ccccc4C(=O)O)cc3)cc2)nnn1C)c1ccccc1 [IT309] | > 7.30 | > 7.30 | > 7.30
C[C@@H](OC(=O)Nc1c(-c2ccc(-c3cc(F)c(Oc4ccncc4C(=O)O)c(F)c3)cc2)cnn1C)c1ccccc1 [IT438] | > 7.30 | 6.30 to 7.30 | 6.30 to 7.30
C[C@@H](OC(=O)Nc1c(-c2ccc(-c3ccc(C4(C(=O)O)CCOCC4)cc3)cc2)cnn1C)c1ccccc1 [IT027] | 6.30 to 7.30 | < 6.30 | 6.30 to 7.30
Cc1noc(-c2ccc(-c3ccc(Oc4ccncc4C(=O)O)c(F)c3)cc2)c1NC(=O)O[C@H](C)c1ccccc1 [IT423] | > 7.30 | 6.30 to 7.30 | > 7.30
Cn1ncc(C#Cc2cc3sc(C4(C(=O)O)CC4)cc3s2)c1NC(=O)O[C@@H](c1ccccc1)C(F)(F)F [IT114] | > 7.30 | > 7.30 | 6.30 to 7.30
C[C@@H](OC(=O)Nc1c(-c2ccc(-c3cc(F)c(Oc4ncccc4C(=O)O)c(F)c3)cc2)nnn1C)c1ccccc1 [IT306] | > 7.30 | > 7.30 | > 7.30

From patent US20140213538A1, “LYSOPHOSPHATIDIC ACID RECEPTOR ANTAGONISTS” (InterMune, Inc., priority 2013, published 2014)
